Literature values as cited in US20090082464A1, “EXTERNALLY MASKED NEOPENTYL SULFONYL ESTER CYCLIZATION RELEASE PRODRUGS OF ACAMPROSATE, COMPOSITIONS THEREOF, AND METHODS OF USE” (priority 2007, published 2009).

Columns and labels:
cocaine conditioned mice = settings: 100 mg/kg for 3 days

In the case of `CC(=O)NCCCS(=O)(=O)O` [acamprosate, 3-(Acetylamino)propylsulfonic acid], the steady-state plasma concentration (doses of about 1-2 gm per day) is given as 370 to 640 ng/mL, the “time post-dose at which steady-state plasma concentration occurs” value (doses of about 1-2 gm per day) is given as 3 to 8 h and the “oral bioavailability of acamprosate” value (humans, oral) is given as “about 11%”. The relapse-like behavior (cocaine conditioned mice) was “attenuated relapse-like behavior”.
